Measurements reported in patent US9486506B2 (Novo Nordisk A/S, priority 2011, dated 2016).
Numbered stars: 1 amine (or outer) side, 2 acyl side, 3 side chain; on linkers, the order of the positions; unused ones are H or OH. Side chains are listed from the residue outwards. Peptide text beside a SMILES is read from it. * marks the point of attachment. C18 diacid = O=C(O)CCCCCCCCCCCCCCCCC(=O)*; γGlu = O=C(O)[C@H](CCC(=O)[*:2])N[*:1]; AEEA = NCCOCCOCC(=O)O

Experiments:
glucagon receptor = molecular target: T1, glucagon receptor (Homo sapiens, UniProt P47871); experiment: Assay (I) Glucagon activity (cAMP biosensor, FLIPR); type: cell-based
T1 construct: expressed in transfected cells

[1] = Assay (X) Chemical stability assessment by RP-UPLC; type: physicochemical; details: pH 8.15, 14 days at 37° C. vs 5° C., 333 μM

T1 sequence (P47871 26-477): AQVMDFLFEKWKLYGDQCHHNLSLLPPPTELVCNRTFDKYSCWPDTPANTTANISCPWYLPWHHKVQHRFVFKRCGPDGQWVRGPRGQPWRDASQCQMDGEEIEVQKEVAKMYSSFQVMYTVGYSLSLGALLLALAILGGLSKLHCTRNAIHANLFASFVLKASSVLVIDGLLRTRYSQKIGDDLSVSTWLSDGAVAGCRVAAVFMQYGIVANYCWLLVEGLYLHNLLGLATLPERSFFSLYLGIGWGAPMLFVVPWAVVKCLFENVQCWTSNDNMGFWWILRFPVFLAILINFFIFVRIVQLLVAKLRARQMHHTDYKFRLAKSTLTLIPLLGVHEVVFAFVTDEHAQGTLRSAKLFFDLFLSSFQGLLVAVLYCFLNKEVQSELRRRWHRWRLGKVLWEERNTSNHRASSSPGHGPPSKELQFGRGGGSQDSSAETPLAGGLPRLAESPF

Row | SMILES | EC50 (glucagon receptor) [nM] | Chemical stability [Purity loss/14 days 37 C.] [1] [%]
1 | CC(C)C[C@H](NC(=O)[C@H](Cc1ccc(O)cc1)NC(=O)[C@H](CCCNC(=N)N)NC(=O)[C@H](CO)NC(=O)[C@H](Cc1ccc(O)cc1)NC(=O)[C@H](CC(=O)O)NC(=O)[C@H](CO)NC(=O)[C@@H](NC(=O)[C@H](Cc1ccccc1)NC(=O)[C@@H](NC(=O)CNC(=O)[C@H](CCC(N)=O)NC(=O)[C@H](CO)NC(=O)[C@@H](N)Cc1c[nH]cn1)[C@@H](C)O)[C@@H](C)O)C(=O)N[C@@H](CCC(=O)O)C(=O)N[C@@H](CO)C(=O)N[C@@H](CCCNC(=N)N)C(=O)N[C@@H](CCCNC(=N)N)C(=O)N[C@@H](C)C(=O)N[C@@H](CCC(N)=O)C(=O)N[C@@H](CCC(=O)O)C(=O)N[C@@H](Cc1ccccc1)C(=O)N[C@H](C(=O)N[C@@H](CCCCNC(=O)CC[C@H](NC(=O)CC[C@H](NC(=O)COCCOCCNC(=O)COCCOCCNC(=O)CC[C@H](NC(=O)CCCCCCCCCCCCCCCCC(=O)O)C(=O)O)C(=O)O)C(=O)O)C(=O)N[C@@H](Cc1c[nH]c2ccccc12)C(=O)N[C@@H](CC(C)C)C(=O)N[C@@H](CC(C)C)C(=O)N[C@@H](CO)C(=O)N[C@H](C(=O)O)[C@@H](C)O)C(C)C [Example 52, N^ε24-[(4S)-4-carboxy-4-[[(4S)-4-carboxy-4-[[2-[2-[2-[[2-[2-[2-[[(4S)-4-carboxy-4-(17-carboxyheptadecanoylamino)butanoyl]amino]ethoxy]ethoxy]acetyl]amino]ethoxy]ethoxy]acetyl]amino]butanoyl]amino]butanoyl]-[Arg12,Glu15,Glu21,Lys24,Leu27,Ser28]-Glucagon] (H-HSQGTFTSDYSRYLESRRAQEFVK([γGlu-γGlu-AEEA-AEEA-γGlu-C18 diacid])WLLST-OH) | 0.289 | 6.3
2 | CC[C@H](C)[C@H](NC(=O)[C@H](CC(=O)O)NC(=O)[C@H](CC(C)C)NC(=O)[C@H](Cc1ccc(O)cc1)NC(=O)[C@H](CCCNC(=N)N)NC(=O)[C@H](CO)NC(=O)[C@H](Cc1ccc(O)cc1)NC(=O)[C@H](CC(=O)O)NC(=O)[C@H](CO)NC(=O)[C@@H](NC(=O)[C@H](Cc1ccccc1)NC(=O)[C@@H](NC(=O)CNC(=O)[C@H](CCC(N)=O)NC(=O)[C@H](CO)NC(=O)[C@@H](N)Cc1c[nH]cn1)[C@@H](C)O)[C@@H](C)O)C(=O)N[C@@H](CCCNC(=N)N)C(=O)N[C@@H](CCCNC(=N)N)C(=O)N[C@@H](C)C(=O)N[C@@H](CCC(N)=O)C(=O)N[C@@H](CCC(=O)O)C(=O)N[C@@H](Cc1ccccc1)C(=O)N[C@H](C(=O)N[C@@H](CCCCNC(=O)CC[C@H](NC(=O)CC[C@H](NC(=O)COCCOCCNC(=O)COCCOCCNC(=O)CC[C@H](NC(=O)CCCCCCCCCCCCCCCCC(=O)O)C(=O)O)C(=O)O)C(=O)O)C(=O)N[C@@H](Cc1c[nH]c2ccccc12)C(=O)N[C@@H](CC(C)C)C(=O)N[C@@H](CCC(=O)O)C(=O)N[C@@H](CO)C(=O)N[C@H](C(=O)O)[C@@H](C)O)C(C)C [Example 53, N^ε24-[(4S)-4-carboxy-4-[[(4S)-4-carboxy-4-[[2-[2-[2-[[2-[2-[2-[[(4S)-4-carboxy-4-(17-carboxyheptadecanoylamino)butanoyl]amino]ethoxy]ethoxy]acetyl]amino]ethoxy]ethoxy]acetyl]amino]butanoyl]amino]butanoyl]-[Arg12,Ile16,Glu21,Lys24,Glu27,Ser28]-Glucagon] (H-HSQGTFTSDYSRYLDIRRAQEFVK([γGlu-γGlu-AEEA-AEEA-γGlu-C18 diacid])WLEST-OH) | 0.099 | 2.5
3 | CC(C)C[C@H](NC(=O)[C@H](Cc1ccc(O)cc1)NC(=O)[C@H](CCCCN)NC(=O)[C@H](CO)NC(=O)[C@H](Cc1ccc(O)cc1)NC(=O)[C@H](CC(=O)O)NC(=O)[C@H](CO)NC(=O)[C@@H](NC(=O)[C@H](Cc1ccccc1)NC(=O)[C@@H](NC(=O)CNC(=O)[C@H](CCC(N)=O)NC(=O)[C@H](CO)NC(=O)[C@@H](N)Cc1c[nH]cn1)[C@@H](C)O)[C@@H](C)O)C(=O)N[C@@H](CC(=O)O)C(=O)N[C@@H](C)C(=O)N[C@@H](CCCNC(=N)N)C(=O)N[C@@H](CCCNC(=N)N)C(=O)N[C@@H](C)C(=O)N[C@@H](CCC(N)=O)C(=O)N[C@@H](CC(=O)O)C(=O)N[C@@H](Cc1ccccc1)C(=O)N[C@H](C(=O)N[C@@H](CCCCNC(=O)CC[C@H](NC(=O)CC[C@H](NC(=O)COCCOCCNC(=O)COCCOCCNC(=O)CC[C@H](NC(=O)CCCCCCCCCCCCCCCCC(=O)O)C(=O)O)C(=O)O)C(=O)O)C(=O)N[C@@H](Cc1c[nH]c2ccccc12)C(=O)N[C@@H](CC(C)C)C(=O)N[C@@H](CC(C)C)C(=O)N[C@@H](CCC(N)=O)C(=O)N[C@H](C(=O)O)[C@@H](C)O)C(C)C [Example 56, N^ε24-[(4S)-4-carboxy-4-[[(4S)-4-carboxy-4-[[2-[2-[2-[[2-[2-[2-[[(4S)-4-carboxy-4-(17-carboxyheptadecanoylamino)butanoyl]amino]ethoxy]ethoxy]acetyl]amino]ethoxy]ethoxy]acetyl]amino]butanoyl]amino]butanoyl]-[Ala16,Lys24,Leu27,Gln28]-Glucagon] | 0.192 | 8.1
4 | CC(C)C[C@H](NC(=O)[C@H](Cc1ccc(O)cc1)NC(=O)[C@H](CCCCN)NC(=O)[C@H](CO)NC(=O)[C@H](Cc1ccc(O)cc1)NC(=O)[C@H](CC(=O)O)NC(=O)[C@H](CO)NC(=O)[C@@H](NC(=O)[C@H](Cc1ccccc1)NC(=O)[C@@H](NC(=O)CNC(=O)[C@H](CCC(N)=O)NC(=O)[C@H](CO)NC(=O)[C@@H](N)Cc1c[nH]cn1)[C@@H](C)O)[C@@H](C)O)C(=O)N[C@@H](CC(=O)O)C(=O)N[C@@H](C)C(=O)N[C@@H](CCCNC(=N)N)C(=O)N[C@@H](CCCNC(=N)N)C(=O)N[C@@H](C)C(=O)N[C@@H](CCC(N)=O)C(=O)N[C@@H](CC(=O)O)C(=O)N[C@@H](Cc1ccccc1)C(=O)N[C@H](C(=O)N[C@@H](CCCCNC(=O)CC[C@H](NC(=O)CC[C@H](NC(=O)COCCOCCNC(=O)COCCOCCNC(=O)CC[C@H](NC(=O)CCCCCCCCCCCCCCCCC(=O)O)C(=O)O)C(=O)O)C(=O)O)C(=O)N[C@@H](Cc1c[nH]c2ccccc12)C(=O)N[C@@H](CC(C)C)C(=O)N[C@@H](CCC(=O)O)C(=O)N[C@@H](CO)C(=O)N[C@H](C(=O)O)[C@@H](C)O)C(C)C [Example 57, N^ε24-[(4S)-4-carboxy-4-[[(4S)-4-carboxy-4-[[2-[2-[2-[[2-[2-[2-[[(4S)-4-carboxy-4-(17-carboxyheptadecanoylamino)butanoyl]amino]ethoxy]ethoxy]acetyl]amino]ethoxy]ethoxy]acetyl]amino]butanoyl]amino]butanoyl]-[Ala16,Lys24,Glu27,Ser28]-Glucagon] | 0.07 | 7.9
5 | CC(C)C[C@H](NC(=O)[C@H](Cc1ccc(O)cc1)NC(=O)[C@H](CCCCN)NC(=O)[C@H](CO)NC(=O)[C@H](Cc1ccc(O)cc1)NC(=O)[C@H](CC(=O)O)NC(=O)[C@H](CO)NC(=O)[C@@H](NC(=O)[C@H](Cc1ccccc1)NC(=O)[C@@H](NC(=O)CNC(=O)[C@H](CCC(N)=O)NC(=O)[C@H](CO)NC(=O)[C@@H](N)Cc1c[nH]cn1)[C@@H](C)O)[C@@H](C)O)C(=O)N[C@@H](CCC(=O)O)C(=O)N[C@@H](CO)C(=O)N[C@@H](CCCNC(=N)N)C(=O)N[C@@H](CCCNC(=N)N)C(=O)N[C@@H](C)C(=O)N[C@@H](CCC(N)=O)C(=O)N[C@@H](CC(=O)O)C(=O)N[C@@H](Cc1ccccc1)C(=O)N[C@H](C(=O)N[C@@H](CCCCNC(=O)CC[C@H](NC(=O)CC[C@H](NC(=O)COCCOCCNC(=O)COCCOCCNC(=O)CC[C@H](NC(=O)CCCCCCCCCCCCCCCCC(=O)O)C(=O)O)C(=O)O)C(=O)O)C(=O)N[C@@H](Cc1c[nH]c2ccccc12)C(=O)N[C@@H](CC(C)C)C(=O)N[C@@H](CC(C)C)C(=O)N[C@@H](CO)C(=O)N[C@H](C(N)=O)[C@@H](C)O)C(C)C [Example 58, N^ε24-[(4S)-4-carboxy-4-[[(4S)-4-carboxy-4-[[2-[2-[2-[[2-[2-[2-[[(4S)-4-carboxy-4-(17-carboxyheptadecanoylamino)butanoyl]amino]ethoxy]ethoxy]acetyl]amino]ethoxy]ethoxy]acetyl]amino]butanoyl]amino]butanoyl]-[Glu15,Lys24,Leu27,Ser28]-Glucagon amide] | 0.134 | 7.3
6 | CC(C)C[C@H](NC(=O)[C@H](Cc1c[nH]c2ccccc12)NC(=O)[C@H](CCCCNC(=O)CC[C@H](NC(=O)COCCOCCNC(=O)COCCOCCNC(=O)CC[C@H](NC(=O)CC[C@H](NC(=O)CCCCCCCCCCCCCCCCC(=O)O)C(=O)O)C(=O)O)C(=O)O)NC(=O)[C@@H](NC(=O)[C@H](Cc1ccccc1)NC(=O)[C@H](CCC(=O)O)NC(=O)[C@H](CCC(N)=O)NC(=O)[C@H](C)NC(=O)[C@H](CCCNC(=N)N)NC(=O)[C@H](CCCNC(=N)N)NC(=O)[C@@H](NC(=O)[C@H](CC(=O)O)NC(=O)[C@H](CC(C)C)NC(=O)[C@H](Cc1ccc(O)cc1)NC(=O)[C@H](CCCCN)NC(=O)[C@H](CO)NC(=O)[C@@H](NC(=O)[C@H](CC(=O)O)NC(=O)[C@H](CO)NC(=O)[C@@H](NC(=O)[C@H](Cc1ccccc1)NC(=O)[C@@H](NC(=O)CNC(=O)[C@H](CCC(N)=O)NC(=O)[C@H](CO)NC(=O)[C@@H](N)Cc1c[nH]cn1)[C@@H](C)O)[C@@H](C)O)C(C)C)[C@@H](C)O)C(C)C)C(=O)N[C@@H](CC(C)C)C(=O)N[C@@H](CO)C(=O)N[C@H](C(N)=O)[C@@H](C)O [Example 61, N^ε24-[(4S)-4-carboxy-4-[[2-[2-[2-[[2-[2-[2-[[(4S)-4-carboxy-4-[[(4S)-4-carboxy-4-(17-carboxyheptadecanoylamino)butanoyl]amino]butanoyl]amino]ethoxy]ethoxy]acetyl]amino]ethoxy]ethoxy]acetyl]amino]butanoyl]-[Val10,Thr16,Glu21,Lys24,Leu27,Ser28]-Glucagon amide] (H-HSQGTFTSDVSKYLDTRRAQEFVK([γGlu-AEEA-AEEA-γGlu-γGlu-C18 diacid])WLLST-NH2) | 0.156 | 6.2
